Read-outs that look alike come from different tables or passages of the source.
How the values were obtained:
mTOR = biological target: T1, mTOR (Homo sapiens, UniProt P42345); test: mTOR kinobeads assay (competitive binding in Jurkat cell lysate, immunodetection); settings: kinobeads assay
T1 construct: endogenous in cells; host or cells: Jurkat, clone E6-1 (ATCC TIB-152) cell lysate
In short: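 IC50 derived from dose-response curves of mTOR captured on immobilized phenylmorpholin-chromen beads, detected by antibody dot blot with infrared fluorescence.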

[1] = test system: Akt serine-473 phosphorylation; test: In vitro Phospho-Akt cellular assay (pAkt S473) in HEK293T/17 cells; assay type: cell-based; settings: Homo sapiens, 2 hours
Excerpt: Activation of mTOR signaling results in phosphorylation of several downstream targets. In cells, mTOR exists in two different protein complexes. The mTOR Complex-1 (mTORC1) phosphorylates and activates S6 Kinase 1 (S6K1) and S6 Kinase 2 (S6K2) (also known as p70S6K) which then phosphorylate S6 Ribosomal Protein (S6RP) (also known as RPS6)3. S6RP is phosphorylated on serine 235, serine 236, serine 240 and serine 244 by both pS6K1 and pS6K2. The mTOR Complex-2 (mTORC2) phosphorylates AKT on serine 473 which activates the AKT signaling pathway.
The assay measures a test compound's inhibition of S6RP serine-240/244 phosphorylation and inhibition of Akt serine-473 phosphorylation in human embryonic kidney derived HEK293T/17 cells (ATCC CRL-11268).
The HEK293T/17 cell line is maintained in DMEM media (Invitrogen catalogue number 41965-039) supplemented with 10% FCS at 37° C. in a 5% CO2 humidified incubator.
Cells are seeded in 96-well plates at 40,000 cells/well (pS6RP S240/244 assay) or 80,000 cells/well (pAkt S473 assay) in 90 μl growth media (DMEM, 2% FCS). Plates are incubated for 1 hour in a humidified incubator to allow the cells to adhere. Cells are treated with 8 concentrations of test compounds or DMSO alone for controls (final DMSO concentration 0.1%) and incubated at 37° C. for 2 hours. Then 20 μl of 5× concentrated lysis buffer (750 mM NaCl, 100 mM Tris pH7.4, 5 mM ADTA, 5 mM EGTA, 5% Triton X-100) is added, plates are sealed and incubated for 15 minutes at 4° C. with gentle shaking. After cell lysis, 25 μl cell lysate is transferred to a MesoScale plate coated with an antibody to pS6RP Ser240/244 (MesoScale Discovery K150DGD-3) or an antibody to pAkt Ser 473 (MesoScale Discovery K151DGD-3). Plates have been blocked before by incubation with 150 μl MesoScale Discovery Blocking Solution-A for 1 hour at room temperature followed by washing with 150 μl 1× Tris wash buffer per well. After the transfer of the cell lysate to the MSD plate, the pS6RP (or pAkt) protein is captured on the coated antibody by incubation at room temperature for 1 hour with gentle shaking. After the capture step the plate is washed three times with 150 μl of 1× Tris wash buffer per well. Then 25 μl detection antibody conjugated with a Sulfo-Tag is added and incubated for 1 hour at room temperature with gentle shaking. Subsequently the antibody solution is removed and the plate is washed 3 times with 150 μl×Tris wash buffer per well and 150 μl Read buffer is added. The plates are analysed on a MSD 2400 Plate Reader (MesoScale Discovery). Data analysis is performed using nonlinear regression for a sigmoidal dose-response with a variable slope.

[2] = Table 4, read-out: Inhibition values (IC50) mTor
[3] = Table 6, read-out: Inhibition values (IC50) mTOR

IC50 (mTOR; [2]) [µM]	IC50 (mTOR; [3]) [µM]	IC50 [1] [µM]	Compound
< 0.1	< 0.1	0.017	CCNC(=O)Nc1ccc(-c2nc3c(c(N4CCOC[C@@H]4C)n2)CCN(C(=O)C(C)(C)C)C3)cc1 [Example 58, (S)-1-ethyl-3-(4-(4-(3-methylmorpholino)-7-pivaloyl-5,6,7,8-tetrahydropyrido[3,4-d]pyrimidin-2-yl)phenyl)urea]
< 0.1	< 0.1	0.021	C[C@H]1COCCN1c1nc(-c2ccc(NC(=O)NC3CC3)cc2)nc2c1CCN(C(=O)C1CC1)C2 [Example 60, (S)-1-(4-(7-(cyclopropanecarbonyl)-4-(3-methylmorpholino)-5,6,7,8-tetrahydropyrido[3,4-d]pyrimidin-2-yl)phenyl)-3-cyclopropylurea]
< 0.1	< 0.1	0.02	CC(C)C(=O)N1CCc2c(nc(-c3ccc(NC(=O)NC4CC4)cc3)nc2N2CCOC[C@@H]2C)C1 [Example 61, (S)-1-cyclopropyl-3-(4-(7-isobutyryl-4-(3-methylmorpholino)-5,6,7,8-tetrahydropyrido[3,4-d]pyrimidin-2-yl)phenyl)urea]
–	< 0.1	0.017	C[C@H]1COCCN1c1nc(-c2ccc(NC(=O)NC3CC3)cc2)nc2c1CCN(C(=O)C(C)(C)C)C2 [Example 64, (S)-1-cyclopropyl-3-(4-(4-(3-methylmorpholino)-7-pivaloyl-5,6,7,8-tetrahydropyrido[3,4-d]pyrimidin-2-yl)phenyl)urea]
–	< 0.1	0.054	CCNC(=O)Nc1ccc(-c2nc3c(c(N4CCOC[C@@H]4C)n2)CN(CC(C)C)C3)cc1 [Example 66, (S)-1-ethyl-3-(4-(6-isobutyl-4-(3-methylmorpholino)-6,7-dihydro-5H-pyrrolo[3,4-d]pyrimidin-2-yl)phenyl)urea]
–	< 0.1	0.028	CCNC(=O)Nc1ccc(-c2nc3c(c(N4CCOC[C@@H]4C)n2)CCN(C(=O)OCC)C3)cc1 [Example 77, (S)-ethyl 2-(4-(3-ethylureido)phenyl)-4-(3-methylmorpholino)-5,6-dihydropyrido[3,4-d]pyrimidine-7(8H)-carboxylate]
–	< 0.1	0.021	CCOC(=O)N1CCc2c(nc(-c3ccc(NC(=O)NC4CC4)cc3)nc2N2CCOC[C@@H]2C)C1 [Example 78, (S)-ethyl 2-(4-(3-cyclopropylureido)phenyl)-4-(3-methylmorpholino)-5,6-dihydropyrido[3,4-d]pyrimidine-7(8H)-carboxylate]
–	< 0.1	0.061	C[C@H]1COCCN1c1nc(-c2ccc(NC(=O)Nc3cccc(O)n3)cc2)nc2c1CN(C)C2 [Example 80, (S)-1-(6-hydroxypyridin-2-yl)-3-(4-(6-methyl-4-(3-methylmorpholino)-6,7-dihydro-5H-pyrrolo[3,4-d]pyrimidin-2-yl)phenyl)urea]
–	< 0.1	0.022	CCNC(=O)Nc1ccc(-c2nc3c(c(N4CCOC[C@@H]4C)n2)CCN(C(=O)OC)C3)cc1 [Example 81, (S)-methyl 2-(4-(3-ethylureido)phenyl)-4-(3-methylmorpholino)-5,6-dihydropyrido[3,4-d]pyrimidine-7(8H)-carboxylate]
–	< 0.1	0.07	COC(=O)N1CCc2c(nc(-c3ccc(NC(=O)NC4CC4)cc3)nc2N2CCOC[C@@H]2C)C1 [Example 83, (S)-methyl 2-(4-(3-cyclopropylureido)phenyl)-4-(3-methylmorpholino)-5,6-dihydropyrido[3,4-d]pyrimidine-7(8H)-carboxylate]
–	0.1 to 1	0.531	CCNC(=O)Nc1ccc(-c2nc3c(c(N4CCOC[C@@H]4C)n2)CN(C)C3)cc1F [Example 85, (S)-1-ethyl-3-(2-fluoro-4-(6-methyl-4-(3-methylmorpholino)-6,7-dihydro-5H-pyrrolo[3,4-d]pyrimidin-2-yl)phenyl)urea]
–	< 0.1	0.043	COC(=O)N1Cc2nc(-c3ccc(NC(=O)NC4CC4)cc3)nc(N3CCOC[C@@H]3C)c2C1 [Example 86, (S)-methyl 2-(4-(3-cyclopropylureido)phenyl)-4-(3-methylmorpholino)-5H-pyrrolo[3,4-d]pyrimidine-6(7H)-carboxylate]
–	< 0.1	0.091	CCNC(=O)Nc1ccc(-c2nc3c(c(N4CCOC[C@@H]4C)n2)CCN(C(=O)NCC)C3)cc1 [Example 87, (S)—N-ethyl-2-(4-(3-ethylureido)phenyl)-4-(3-methylmorpholino)-5,6-dihydropyrido[3,4-d]pyrimidine-7(8H)-carboxamide]
–	< 0.1	0.057	CCNC(=O)N1CCc2c(nc(-c3ccc(NC(=O)NC4CC4)cc3)nc2N2CCOC[C@@H]2C)C1 [Example 88, (S)-2-(4-(3-cyclopropylureido)phenyl)-N-ethyl-4-(3-methylmorpholino)-5,6-dihydropyrido[3,4-d]pyrimidine-7(8H)-carboxamide]
–	< 0.1	0.042	CCNC(=O)Nc1ccc(-c2nc3c(c(N4CCOC[C@@H]4C)n2)CN(C(=O)OC)C3)cc1 [Example 89, (S)-methyl 2-(4-(3-ethylureido)phenyl)-4-(3-methylmorpholino)-5H-pyrrolo[3,4-d]pyrimidine-6(7H)-carboxylate]
–	< 0.1	0.037	CCNC(=O)Nc1ccc(-c2nc3c(c(N4CCOC[C@@H]4C)n2)CN(C(=O)OCC)C3)cc1 [Example 90, (S)-ethyl 2-(4-(3-ethylureido)phenyl)-4-(3-methylmorpholino)-5H-pyrrolo[3,4-d]pyrimidine-6(7H)-carboxylate]
–	< 0.1	0.087	CCNC(=O)Nc1ccc(-c2nc3c(c(N4CCOC[C@@H]4C)n2)CCN(C(=O)Cc2cccnc2)C3)cc1 [Example 91, (S)-1-ethyl-3-(4-(4-(3-methylmorpholino)-7-(2-(pyridin-3-yl)acetyl)-5,6,7,8-tetrahydropyrido[3,4-d]pyrimidin-2-yl)phenyl)urea]
–	0.1 to 1	0.088	CCNC(=O)Nc1ccc(-c2nc3c(c(N4CCOC[C@@H]4C)n2)CN(C(=O)OCC)C3)cc1F [Example 103, (S)-ethyl-2-(4-(3-ethylureido)-3-fluorophenyl)-4-(3-methylmorpholino)-5H-pyrrolo[3,4-d]pyrimidine-6(7H)-carboxylate]
–	0.1 to 1	0.118	CCNC(=O)Nc1ccc(-c2nc3c(c(N4CCOC[C@@H]4C)n2)CCN(C)C3)c(F)c1 [Example 110, (S)-1-ethyl-3-(3-fluoro-4-(7-methyl-4-(3-methylmorpholino)-5,6,7,8-tetrahydropyrido[3,4-d]pyrimidin-2-yl)phenyl)urea]
–	0.1 to 1	0.053	CCNC(=O)Nc1ccc(-c2nc3c(c(N4CCOC[C@@H]4C)n2)CN(C(=O)OCC)C3)c(F)c1 [Example 113, (S)-ethyl-2-(4-(3-ethylureido)-2-fluorophenyl)-4-(3-methylmorpholino)-5H-pyrrolo[3,4-d]pyrimidine-6(7H)-carboxylate]
–	0.1 to 1	0.049	CCOC(=O)N1Cc2nc(-c3ccc(NC(=O)NC4CC4)cc3F)nc(N3CCOC[C@@H]3C)c2C1 [Example 131, (S)-ethyl 2-(4-(3-cyclopropylureido)-2-fluorophenyl)-4-(3-methylmorpholino)-5H-pyrrolo[3,4-d]pyrimidine-6(7H)-carboxylate]

From patent US8785457B2 (Cellzome Limited, priority 2009, dated 2014)
